Test results as given in US20150011463A1, “AGENT FOR PREVENTING OR AM[…] ENDOTHELIAL MALFUNCTION” (KYOWA HAKKO BIO CO., LTD., priority 2012, published 2015).

Tested on: normal human umbilical vein endothelial cell (HUVEC)
Test: NO production (nitrite in culture supernatant by HPLC) in HUVEC
Type: cell-based
Conditions: citrulline final concentration 0.3 mM, 24-hour culture, vs control (PBS)
Procedure: The cells were cultured in at 37° C., in 5% CO2 incubator, and used for experiment after 4 to 6 passages. Citrulline and reduced glutathione were obtained from Kyowa Hakko Bio.
A cell suspension (0.45 mL) with the adjusted initial cell concentration of 5×10^5 cells/mL was inoculated in a 24-well plate (IWAKI). After 40-hour culture, the media were replaced with those containing citrulline (final concentration 0.3 mM: citrulline group), reduced glutathione (final concentration 1 mM: high-dose glutathione group), and a citrulline and reduced glutathione mixture (citrulline final concentration 0.3 mM; glutathione final concentration 0.3 mM: citrulline+low-dose glutathione group). Media with the sole addition of solvent (PBS) were used as a control group. After 24-hour culture, the cell culture (100 μL) was centrifuged at 12,000 rpm for 10 minutes, and the concentration of nitrite (NO2), which is the stable NO metabolite, in culture supernatant was quantified by HPLC (ENO-20, EICOM).

Question: Which “effect on NO production (concentration of nitrite (NO2) in culture supernatant)” value does the source give for `NC(=O)NCCC[C@H](N)C(=O)O` [citrulline] here?
Answer: no effect
